Measurements from patent US11629171B2, “Beta-hairpin peptidomimetics” (POLYPHOR AG, priority 2017, dated 2023).
In brackets after ≈: the same amount, converted by molar mass. Where a SMILES comes first, the peptide text is derived from it. Bridges are numbered along the chain shown (N, C = ends). Roman numbers before positions name the chains, in order. [ ]: non-standard residue; d: D form. The star is where a group is joined. Tle = CC(C)(C)[C@H](N)C(=O)O; NMeV = CN[C@H](C(=O)O)C(C)C; d(hSer) = N[C@H](CCO)C(=O)O; Hiv = CC(C)[C@H](O)C(=O)O; dDab = NCC[C@@H](N)C(=O)O; hSer = N[C@@H](CCO)C(=O)O; NHCH(CH2OH)2 = OCC(CO)N*; Dab = NCC[C@H](N)C(=O)O; Abu = CC[C@H](N)C(=O)O; Dap = NC[C@H](N)C(=O)O

Columns and labels:
Escherichia coli 926415 = type: cell-based; conditions: 926415
In short: (§1)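 Two-fold peptide dilutions in polysorbate 80-containing (0.002% final) cation-adjusted Mueller-Hinton II broth were inoculated with about 10^6 CFU/mL. The MIC was taken as the lowest concentration, in μg/mL, preventing visible growth at 18-20 hours and 35° C.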

[1] = system: Klebsiella pneumoniae 968733; type: cell-based; conditions: 968733
In short: as §1

[2] = system: Pseudomonas aeruginosa ATCC 27853; type: cell-based; conditions: ATCC 27853
In short: as §1

[3] = system: Escherichia coli ATCC 25922; type: cell-based; conditions: ATCC 25922
In short: as §1

[4] = system: Klebsiella pneumoniae SSI #3010; type: cell-based; conditions: SSI #3010
In short: as §1

[5] = system: Acinetobacter baumannii 872842; type: cell-based; conditions: 872842
In short: as §1

[6] = system: Acinetobacter baumannii DSM 30008; type: cell-based; conditions: DSM 30008
In short: as §1

[7] = system: Enterobacter cloacae 848840; type: cell-based; conditions: 848840
In short: as §1

[8] = system: human red blood cells (hRBC); experiment: Hemolysis; type: cell-based; conditions: red cells of human, 1 h, 200
In short: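 Hemoglobin release from PBS-washed hRBC at 20% (v/v), incubated 1 h at 37° C with peptides at 200 μg/mL, is measured at 540 nm. Values are blank corrected and given as a fraction of Triton X-100 lysis × 100%.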

male ICR mice = experiment: Tolerability in a mouse model (Maximum Tolerated Dose assay); type: in vivo; conditions: groups of 3
In short: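 Groups of 3 male ICR mice weighing 23±3 g received two subcutaneous doses, 12 h apart, of 30 or 40 mg/kg in saline adjusted to pH 6.5-7.6. Observation for 30 min after each dose covered autonomic effects and acute toxicity, including death.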

[9] = 2 × 40 mg/kg s.c. at a 12-hr interval
[10] = 2 × 30 mg/kg s.c. at a 12-hr interval

Row | Compound | MIC (Escherichia coli 926415) [µg/mL] | MIC [1] [µg/mL] | Pseudomonas aeruginosa ATCC 27853 MIC [2] [µg/mL] | Escherichia coli ATCC 25922 MIC [3] [µg/mL] | Klebsiella pneumoniae SSI #3010 MIC [4] [µg/mL] | MIC [5] [µg/mL] | Acinetobacter baumannii DSM 30008 MIC [6] [µg/mL] | MIC [7] [µg/mL] | Hemolysis at 200 μg/mL [8] [%] | Mortality and dose (male ICR mice; [9]) | MIC [2] [µg/mL] | MIC [3] [µg/mL] | MIC [4] [µg/mL] | MIC [6] [µg/mL] | Mortality and dose (male ICR mice; [10])
1 | CC(=O)N[C@H](C(=O)N[C@H]1CSSC[C@@H](C(=O)N[C@@H](CO)C(N)=O)NC(=O)[C@H](C(C)C)NC(=O)[C@H](CO)NC(=O)[C@H](Cc2c[nH]c3ccccc23)NC(=O)[C@H](CO)NC(=O)[C@@H](CCN)NC(=O)[C@H](CCC(=O)N[C@@H](CCN)C(=O)N[C@H](C(=O)N[C@@H](CCN)C(=O)N[C@H]2CCNC(=O)[C@H]([C@@H](C)O)NC(=O)[C@H](CCN)NC(=O)[C@H](CCN)NC(=O)[C@H](CC(C)C)NC(=O)[C@@H](CC(C)C)NC(=O)[C@H](CCN)NC2=O)[C@@H](C)O)NC(=O)[C@H](CCN)NC(=O)[C@H](Cc2ccc(O)cc2)NC1=O)C(C)C [Ex. 334] (I: Ac-VCY[Dab]E[dDab]SWSVCS-NH2 / II: [Dab]T[Dab][Dab][Dab][dL]L[Dab][Dab]T; disulfide I:2-I:11; amide I:5-II:N; lactam II:4-II:C) | 0.25 (≈ 0.104 µM) | 0.25 (≈ 0.104 µM) | 0.125 | 0.03125 | 0.0625 | 0.125 (≈ 0.0518 µM) | 0.03125 | 0.125 (≈ 0.0518 µM) | <1 | 0/3 died at 2 × 40 mg/kg | – | – | – | – | –
2 | CC[C@@H]1NC(=O)[C@@H](CC(C)C)NC(=O)[C@H](CCN)NC(=O)[C@@H](NC(=O)[C@H](CN)NC(=O)[C@@H](NC(=O)[C@H](CCN)NC(=O)CC[C@@H]2NC(=O)CNC(=O)[C@H](Cc3ccc(O)cc3)NC(=O)[C@@H](NC(=O)[C@@H](NC(C)=O)C(C)C)CSSC[C@@H](C(=O)N[C@@H](CO)C(N)=O)NC(=O)[C@H](C(C)C)NC(=O)[C@H](CCN)NC(=O)[C@H](Cc3c[nH]c4ccccc34)NC(=O)[C@H](CCN)NC(=O)[C@@H](CCO)NC2=O)[C@@H](C)O)CCNC(=O)[C@H]([C@@H](C)O)NC(=O)[C@H](CCN)NC(=O)[C@H](CCN)NC1=O [Ex. 298] (I: Ac-VCYGE[d(hSer)][Dab]W[Dab]VCS-NH2 / II: [Dab]T[Dap][Dab][Dab][dL][Abu][Dab][Dab]T; disulfide I:2-I:11; amide I:5-II:N; lactam II:4-II:C) | 0.5 (≈ 0.212 µM) | 1 (≈ 0.425 µM) | – | – | – | 0.25 (≈ 0.106 µM) | – | 0.25 (≈ 0.106 µM) | <1 | 0/3 died at 2 × 40 mg/kg | 0.25 (≈ 0.106 µM) | 0.03125 (≈ 0.0133 µM) | 0.0625 (≈ 0.0265 µM) | 0.0625 (≈ 0.0265 µM) | –
3 | CC(=O)N[C@H](C(=O)N[C@H]1CSSC[C@@H](C(=O)N[C@@H](CO)C(N)=O)NC(=O)[C@H](C(C)(C)C)NC(=O)[C@H](CO)NC(=O)[C@H](Cc2c[nH]c3ccccc23)NC(=O)[C@H](CCN)NC(=O)[C@@H](CCN)NC(=O)[C@H](CCC(=O)N[C@@H](CCN)C(=O)N[C@H](C(=O)N[C@@H](CN)C(=O)N[C@H]2CCNC(=O)[C@H]([C@@H](C)O)NC(=O)[C@H](CCN)NC(=O)[C@H](CCN)NC(=O)[C@H]([C@@H](C)O)NC(=O)[C@@H](CC(C)C)NC(=O)[C@H](CCN)NC2=O)[C@@H](C)O)NC(=O)[C@H](CO)NC(=O)[C@H](Cc2ccc(O)cc2)NC1=O)C(C)C [Ex. 261] (I: Ac-VCYSE[dDab][Dab]WS[Tle]CS-NH2 / II: [Dab]T[Dap][Dab][Dab][dL]T[Dab][Dab]T; disulfide I:2-I:11; amide I:5-II:N; lactam II:4-II:C) | 0.125 (≈ 0.0521 µM) | 0.25 (≈ 0.104 µM) | – | – | – | 0.0625 (≈ 0.026 µM) | – | 0.125 (≈ 0.0521 µM) | 1 | – | 0.125 (≈ 0.0521 µM) | 0.03125 (≈ 0.013 µM) | 0.0625 (≈ 0.026 µM) | 0.03125 (≈ 0.013 µM) | 0/3 died at 2 × 30 mg/kg
4 | CC(=O)N[C@H](C(=O)N[C@H]1CSSC[C@@H](C(=O)N[C@@H](CO)C(N)=O)NC(=O)[C@H](C(C)C)NC(=O)[C@H](CCN)NC(=O)[C@H](Cc2c[nH]c3ccccc23)NC(=O)[C@H](CO)NC(=O)[C@@H](CO)NC(=O)[C@H](CCC(=O)N[C@@H](CCN)C(=O)N[C@H](C(=O)N[C@@H](CN)C(=O)N[C@H]2CCNC(=O)[C@H]([C@@H](C)O)NC(=O)[C@H](CCN)NC(=O)[C@H](CCN)NC(=O)[C@H](CC(C)C)NC(=O)[C@@H](CC(C)C)NC(=O)[C@H](CCN)NC2=O)[C@@H](C)O)NC(=O)[C@H](CCN)NC(=O)[C@H](Cc2ccc(O)cc2)NC1=O)C(C)C [Ex. 296] (I: Ac-VCY[Dab]E[dS]SW[Dab]VCS-NH2 / II: [Dab]T[Dap][Dab][Dab][dL]L[Dab][Dab]T; disulfide I:2-I:11; amide I:5-II:N; lactam II:4-II:C) | 0.5 (≈ 0.208 µM) | 4 (≈ 1.67 µM) | – | – | – | 0.25 (≈ 0.104 µM) | – | 0.5 (≈ 0.208 µM) | <1 | 0/3 died at 2 × 40 mg/kg | 0.25 (≈ 0.104 µM) | 0.125 (≈ 0.0521 µM) | 0.0625 (≈ 0.0261 µM) | 0.125 (≈ 0.0521 µM) | –
5 | CC(C)C[C@@H]1NC(=O)[C@@H](CC(C)C)NC(=O)[C@H](CCN)NC(=O)[C@@H](NC(=O)[C@H](CN)NC(=O)[C@@H](NC(=O)[C@H](CCN)NC(=O)CC[C@@H]2NC(=O)[C@H](CCN)NC(=O)[C@H](Cc3ccc(O)cc3)NC(=O)[C@@H](NC(=O)[C@@H](O)C(C)C)CSSC[C@@H](C(=O)N[C@@H](CO)C(=O)N[C@H](C)C(N)=O)NC(=O)[C@H](C(C)C)NC(=O)[C@H](CO)NC(=O)[C@H](Cc3c[nH]c4ccccc34)NC(=O)[C@H](CO)NC(=O)[C@@H](CCN)NC2=O)[C@@H](C)O)CCNC(=O)[C@H]([C@@H](C)O)NC(=O)[C@H](CCN)NC(=O)[C@H](CCN)NC1=O [Ex. 379] (I: H-[Hiv]CY[Dab]E[dDab]SWSVCS[dA]-NH2 / II: [Dab]T[Dap][Dab][Dab][dL]L[Dab][Dab]T; disulfide I:2-I:11; amide I:5-II:N; lactam II:4-II:C) | 0.25 (≈ 0.103 µM) | 0.25 (≈ 0.103 µM) | 0.125 | 0.03125 | 0.0625 | 0.125 (≈ 0.0515 µM) | 0.0625 | 1 (≈ 0.412 µM) | <1 | 0/3 died at 2 × 40 mg/kg | – | – | – | – | –
6 | CN[C@H](C(=O)N[C@H]1CSSC[C@@H](C(=O)N[C@@H](CO)C(N)=O)NC(=O)[C@H](C(C)C)NC(=O)[C@H](CO)NC(=O)[C@H](Cc2c[nH]c3ccccc23)NC(=O)[C@H](CCO)NC(=O)[C@@H](CCN)NC(=O)[C@H](CCC(=O)N[C@@H](CCN)C(=O)N[C@H](C(=O)N[C@@H](CCN)C(=O)N[C@H]2CCNC(=O)[C@H]([C@@H](C)O)NC(=O)[C@H](CCN)NC(=O)[C@H](CCN)NC(=O)[C@H](CC(C)C)NC(=O)[C@@H](CC(C)C)NC(=O)[C@H](CCN)NC2=O)[C@@H](C)O)NC(=O)[C@H](CCN)NC(=O)[C@H](Cc2ccc(O)cc2)NC1=O)C(C)C [Ex. 43] (I: H-[NMeV]CY[Dab]E[dDab][hSer]WSVCS-NH2 / II: [Dab]T[Dab][Dab][Dab][dL]L[Dab][Dab]T; disulfide I:2-I:11; amide I:5-II:N; lactam II:4-II:C) | 0.5 (≈ 0.208 µM) | 2 (≈ 0.834 µM) | – | – | – | 0.125 (≈ 0.0521 µM) | – | 2 (≈ 0.834 µM) | <1 | – | 0.5 (≈ 0.208 µM) | 0.25 (≈ 0.104 µM) | 0.25 (≈ 0.104 µM) | 0.5 (≈ 0.208 µM) | 0/3 died at 2 × 30 mg/kg
7 | CC(=O)N[C@@H](Cc1ccc(O)cc1)C(=O)N[C@H]1CSSC[C@@H](C(=O)NC(CO)CO)NC(=O)[C@H](C(C)(C)C)NC(=O)[C@H](CO)NC(=O)[C@H](Cc2c[nH]c3ccccc23)NC(=O)[C@H](CCO)NC(=O)[C@@H](CCN)NC(=O)[C@H](CCC(=O)N[C@@H](CCN)C(=O)N[C@H](C(=O)N[C@@H](CCN)C(=O)N[C@H]2CCNC(=O)[C@H]([C@@H](C)O)NC(=O)[C@H](CCN)NC(=O)[C@H](CCN)NC(=O)[C@H](CC(C)C)NC(=O)[C@@H](CC(C)C)NC(=O)[C@H](CCN)NC2=O)[C@@H](C)O)NC(=O)[C@H](CCN)NC(=O)[C@H](C(C)C)NC1=O [Ex. 96] (I: Ac-YCV[Dab]E[dDab][hSer]WS[Tle]C-{NHCH(CH2OH)2} / II: [Dab]T[Dab][Dab][Dab][dL]L[Dab][Dab]T; disulfide I:2-I:11; amide I:5-II:N; lactam II:4-II:C) | 0.5 (≈ 0.206 µM) | 0.125 (≈ 0.0515 µM) | – | – | – | 0.5 (≈ 0.206 µM) | – | 8 (≈ 3.3 µM) | <1 | – | 0.125 (≈ 0.0515 µM) | 0.0625 (≈ 0.0257 µM) | 0.125 (≈ 0.0515 µM) | 0.125 (≈ 0.0515 µM) | 0/3 died at 2 × 30 mg/kg
